Measurements taken from patent publication US7973012B2, “C-phenyl glycitol compound” (Taisho Pharmaceutical Co., Ltd, priority 2006, dated 2011).

Experiments:
human SGLT1 = target: T1, human SGLT1 (Homo sapiens, UniProt P13866); test: Inhibition test of sodium-dependent sugar uptake in CHO-k1 cells stably expressing human SGLT1; type: cell-based; conditions: for SGLT1 % inhibition at 100 nM: sugar uptake inhibition rate at 100 nM test compound vs control group; for IC50: CHO-k1 cells expressing human SGLT1, [14C]methyl α-D-glucopyranoside uptake, 37° C., 30 minutes
T1 construct: expressed in transfected cells; host or cells: CHO-k1
T1 sequence (P13866 1-664): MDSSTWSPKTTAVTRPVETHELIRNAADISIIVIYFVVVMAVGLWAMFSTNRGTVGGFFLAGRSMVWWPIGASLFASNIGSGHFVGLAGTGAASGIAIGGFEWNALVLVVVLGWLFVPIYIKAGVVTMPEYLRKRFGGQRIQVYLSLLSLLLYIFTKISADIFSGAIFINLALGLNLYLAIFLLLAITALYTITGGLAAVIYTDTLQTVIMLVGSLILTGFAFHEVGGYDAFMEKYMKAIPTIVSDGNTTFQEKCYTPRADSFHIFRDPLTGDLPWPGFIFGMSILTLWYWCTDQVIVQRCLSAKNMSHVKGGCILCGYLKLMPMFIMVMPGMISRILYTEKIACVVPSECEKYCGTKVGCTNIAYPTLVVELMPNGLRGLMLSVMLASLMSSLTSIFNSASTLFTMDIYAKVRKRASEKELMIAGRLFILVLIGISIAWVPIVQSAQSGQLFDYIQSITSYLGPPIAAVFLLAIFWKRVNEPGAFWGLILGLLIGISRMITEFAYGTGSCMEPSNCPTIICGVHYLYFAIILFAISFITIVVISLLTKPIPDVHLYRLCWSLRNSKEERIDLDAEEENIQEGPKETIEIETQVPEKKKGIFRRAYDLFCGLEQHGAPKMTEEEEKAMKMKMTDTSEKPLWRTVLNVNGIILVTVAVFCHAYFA
Procedure: (§1) An SGLT1 sequence (NM_000343) was reverse-transcripted from human small intestinal mRNA, then amplified, and then introduced into pCMV-tag5A from Stratagene Corporation. An SGLT2 sequence (NM_003041) was prepared from human nephric mRNA as with the above method, and then introduced into pcDNA3.1+hygro from Invitrogen Corporation. Each cloned sequence was confirmed to be identical with the reported sequence.
(§2) The human SGLT1 and human SGLT2 expression vectors were transfected into CHO-k1 cells by using Lipofectamine 2000 from Invitrogen Corporation. The SGLT expression cells were incubated in the presence of Geneticin (SGLT1) or Hygromycin B (SGLT2) at a 500 μg/mL concentration to select resistant strains, and specific activity of sugar uptake was obtained as an indicator by the following system.
(§3) Cells stably expressing human SGLT1 and human SGLT2 were used for the inhibition test of sodium-dependent glucose uptake.
(§4) The cells were incubated in a pretreatment buffer A (200 μL for SGLT1, and 2 mL for SGLT2) for 20 minutes. The pretreatment buffer was removed and an uptake buffer B (75 μL for SGLT1, and 200 μL for SGLT2) containing a test compound was added to conduct an uptake reaction at 37° C. for 30 minutes (SGLT1) or an hour (SGLT2). After the reaction, the cells were washed with a washing buffer C twice (200 μL for SGLT1, and 2 mL for SGLT2), and then dissolved in a 0.2 M solution of NaOH (75 μL for SGLT1, and 400 μL for SGLT2). After a liquid scintilater was added thereto and mixed sufficiently, radioactivity was measured with microBETA (SGLT1) or a liquid scintillation counter from Beckman Coulter, Inc (SGLT2). As a control group, an uptake buffer containing no test compound was prepared. In addition, as the basic uptake buffer, an uptake buffer B containing choline chloride instead of NaCl was prepared. • A pretreatment buffer A: 140 mM choline chloride, 2 mM KCl, 1 mM CaCl2, 1 mM MgCl2, 10 mM HEPES/5 mM Tris, pH 7.4. • An uptake buffer B: 1 mM of methyl α-D-glucopyranoside containing [^14C]methyl α-D-glucopyranoside, 140 mM NaCl, 2 mM KCl, 1 mM CaCl2, 1 mM MgCl2, 10 mM HEPES/5 mM Tris, pH 7.4. • A washing buffer C: 10 mM methyl α-D-glucopyranoside, 140 mM choline chloride, 2 mM KCl, 1 mM CaCl2, 1 mM MgCl2, 10 mM HEPES/5 mM Tris, pH 7.4.
(§5) In order to obtain IC50 values, test compounds having adequate 6 concentrations were used and the test compound concentrations (IC50 values) at which sugar uptake is inhibited by 50% in comparison with the amount of sugar uptake (100%) of the control group were calculated.
(§6) In addition, the sugar uptake inhibition rates at 100 nM concentration of the test compound in comparison with the control group are shown in Table 7.

human SGLT2 = target: T2, human SGLT2 (Homo sapiens, UniProt P31639); test: Inhibition test of sodium-dependent sugar uptake in CHO-k1 cells stably expressing human SGLT2; type: cell-based; conditions: for SGLT2 % inhibition at 100 nM: sugar uptake inhibition rate at 100 nM test compound vs control group; for IC50: CHO-k1 cells expressing human SGLT2, [14C]methyl α-D-glucopyranoside uptake, 37° C., an hour
T2 construct: expressed in transfected cells; host or cells: CHO-k1
T2 sequence (P31639 1-672): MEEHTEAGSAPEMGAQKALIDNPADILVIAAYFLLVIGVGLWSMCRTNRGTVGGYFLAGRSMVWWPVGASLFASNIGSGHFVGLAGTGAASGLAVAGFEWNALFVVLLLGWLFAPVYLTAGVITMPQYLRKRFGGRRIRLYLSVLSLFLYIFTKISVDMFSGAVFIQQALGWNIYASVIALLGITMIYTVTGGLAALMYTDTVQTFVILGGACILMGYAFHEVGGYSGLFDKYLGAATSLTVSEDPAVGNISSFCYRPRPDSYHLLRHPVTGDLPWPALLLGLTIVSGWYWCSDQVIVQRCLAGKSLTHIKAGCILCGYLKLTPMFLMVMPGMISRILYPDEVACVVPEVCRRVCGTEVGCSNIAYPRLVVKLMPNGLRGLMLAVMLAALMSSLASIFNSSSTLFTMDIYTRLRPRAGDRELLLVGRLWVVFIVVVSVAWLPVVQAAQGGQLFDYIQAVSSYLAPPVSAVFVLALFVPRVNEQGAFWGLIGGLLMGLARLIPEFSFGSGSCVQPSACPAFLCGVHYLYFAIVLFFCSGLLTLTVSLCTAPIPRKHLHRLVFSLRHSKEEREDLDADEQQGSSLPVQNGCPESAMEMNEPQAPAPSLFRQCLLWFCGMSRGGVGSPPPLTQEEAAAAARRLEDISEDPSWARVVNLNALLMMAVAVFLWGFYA
Procedure: as §1, §2, §3, §4, §5, §6

Cc1cc(O)c([C@@H]2O[C@H](CO)[C@@H](O)[C@H](O)[C@H]2O)cc1Cc1ccc(CCNC(=O)NCCc2ccc(F)cc2)cc1 [Compound 52]
SGLT1 % inhibition at 100 nM (human SGLT1): 71%
SGLT2 % inhibition at 100 nM (human SGLT2): 84%

Cc1cc(O)c(C2OC(CO)C(O)C(O)C2O)cc1Cc1ccc(CCNC(=O)Nc2ccccc2C(O)c2ccccc2)cc1 (mixture of isomers) [Compound 137]
SGLT1 % inhibition at 100 nM (human SGLT1): 71%
SGLT2 % inhibition at 100 nM (human SGLT2): 79%

Cc1cc(O)c(C2OC(CO)C(O)C(O)C2O)cc1Cc1ccc(CCNC(=O)NC2CC3CCC2C3)cc1 (mixture of isomers) [Compound 124]
SGLT1 % inhibition at 100 nM (human SGLT1): 71%
SGLT2 % inhibition at 100 nM (human SGLT2): 79%

O=C(NCCc1ccc(Cc2cc([C@@H]3O[C@H](CO)[C@@H](O)[C@H](O)[C@H]3O)c(O)cc2Cl)cc1)NC(CO)(CO)CO [Compound 14, (1S)-1,5-anhydro-1-[4-chloro-5-[4-[2-[[[2-hydroxy-1,1-bis(hydroxymethyl)ethyl]aminocarbonyl]amino]ethyl]benzyl]-2-hydroxyphenyl]-D-glucitol]
IC50 (human SGLT1): 49 nM
IC50 (human SGLT2): 21 nM

Cc1cc(O)c(C2OC(CO)C(O)C(O)C2O)cc1Cc1ccc(CCNC(=O)N2CCC3CCCCC3C2)cc1 (mixture of isomers) [Compound 143]
SGLT1 % inhibition at 100 nM (human SGLT1): 66%
SGLT2 % inhibition at 100 nM (human SGLT2): 80%

COCCNC(=O)NCCc1ccc(Cc2cc([C@@H]3O[C@H](CO)[C@@H](O)[C@H](O)[C@H]3O)c(O)cc2C)cc1 [Compound 31]
IC50 (human SGLT1): 148 nM
IC50 (human SGLT2): 39 nM

Cc1cc(O)c([C@@H]2O[C@H](CO)[C@@H](O)[C@H](O)[C@H]2O)cc1Cc1ccc(CCNC(=O)N[C@@H](CC(C)C)C(N)=O)cc1 [Compound 24]
IC50 (human SGLT1): 37 nM
IC50 (human SGLT2): 25 nM

Cc1cc(O)c([C@@H]2O[C@H](CO)[C@@H](O)[C@H](O)[C@H]2O)cc1Cc1ccc(CCNC(=O)NCCN2CCCCC2)cc1 [Compound 67]
SGLT1 % inhibition at 100 nM (human SGLT1): 61%
SGLT2 % inhibition at 100 nM (human SGLT2): 82%

O=C(NCCc1ccc(Cc2cc([C@@H]3O[C@H](CO)[C@@H](O)[C@H](O)[C@H]3O)ccc2Cl)cc1)NC(CO)(CO)CO [Compound 17, (1S)-1,5-anhydro-1-[4-chloro-3-[4-[2-[[[2-hydroxy-1,1-bis(hydroxymethyl)ethyl]aminocarbonyl]amino]ethyl]benzyl]phenyl]-D-glucitol]
IC50 (human SGLT1): 79 nM
IC50 (human SGLT2): 25 nM

Cc1cc(O)c([C@@H]2O[C@H](CO)[C@@H](O)[C@H](O)[C@H]2O)cc1Cc1ccc(CCNC(=O)NCC(O)COc2ccccc2)cc1 (stereo partly shown) [Compound 66]
SGLT1 % inhibition at 100 nM (human SGLT1): 62%
SGLT2 % inhibition at 100 nM (human SGLT2): 83%

Cc1cc(O)c([C@@H]2O[C@H](CO)[C@@H](O)[C@H](O)[C@H]2O)cc1Cc1ccc(CCNC(=O)NCc2ccco2)cc1 [Compound 42]
SGLT1 % inhibition at 100 nM (human SGLT1): 78%
SGLT2 % inhibition at 100 nM (human SGLT2): 87%

Cc1cc(O)c([C@@H]2O[C@H](CO)[C@@H](O)[C@H](O)[C@H]2O)cc1Cc1ccc(CCNC(=O)NCc2cc3ccccc3s2)cc1 [Compound 61]
SGLT1 % inhibition at 100 nM (human SGLT1): 65%
SGLT2 % inhibition at 100 nM (human SGLT2): 95%

CSCCNC(=O)NCCc1ccc(Cc2cc([C@@H]3O[C@H](CO)[C@@H](O)[C@H](O)[C@H]3O)c(O)cc2C)cc1 [Compound 29]
IC50 (human SGLT1): 75 nM
IC50 (human SGLT2): 17 nM

Cc1cc(O)c([C@@H]2O[C@H](CO)[C@@H](O)[C@H](O)[C@H]2O)cc1Cc1ccc(CCNC(=O)NC2C3CC4CC(C3)CC2C4)cc1 (stereo partly shown) [Compound 123]
SGLT1 % inhibition at 100 nM (human SGLT1): 78%
SGLT2 % inhibition at 100 nM (human SGLT2): 87%

Cc1cc(O)c([C@@H]2O[C@H](CO)[C@@H](O)[C@H](O)[C@H]2O)cc1Cc1ccc(CCNC(=O)N2CCC(C)CC2)cc1 [Compound 36]
IC50 (human SGLT1): 94 nM
IC50 (human SGLT2): 34 nM

Cc1cc(O)c([C@@H]2O[C@H](CO)[C@@H](O)[C@H](O)[C@H]2O)cc1Cc1ccc(CCNC(=O)N[C@H](CO)Cc2ccccc2)cc1 [Compound 48]
SGLT1 % inhibition at 100 nM (human SGLT1): 73%
SGLT2 % inhibition at 100 nM (human SGLT2): 87%

Cc1cc(O)c([C@@H]2O[C@H](CO)[C@@H](O)[C@H](O)[C@H]2O)cc1Cc1ccc(OCCNC(=O)NC(CO)(CO)CO)cc1 [Compound 19]
IC50 (human SGLT1): 302 nM
IC50 (human SGLT2): 101 nM

COC(=O)C(NC(=O)NCCc1ccc(Cc2cc(C3OC(CO)C(O)C(O)C3O)c(O)cc2C)cc1)C(C)(C)C (stereo not shown) [Compound 54]
SGLT1 % inhibition at 100 nM (human SGLT1): 79%
SGLT2 % inhibition at 100 nM (human SGLT2): 73%

Cc1cc(O)c(C2OC(CO)C(O)C(O)C2O)cc1Cc1ccc(CCNC(=O)NC(CO)CC(C)C)cc1 (stereo not shown) [Compound 46]
SGLT1 % inhibition at 100 nM (human SGLT1): 74%
SGLT2 % inhibition at 100 nM (human SGLT2): 91%

COC(=O)[C@H](Cc1ccccc1)NC(=O)NCCc1ccc(Cc2cc([C@@H]3O[C@H](CO)[C@@H](O)[C@H](O)[C@H]3O)c(O)cc2C)cc1 [Compound 22]
IC50 (human SGLT1): 37 nM
IC50 (human SGLT2): 12 nM

COc1ccc(CCNC(=O)NCCc2ccc(Cc3cc([C@@H]4O[C@H](CO)[C@@H](O)[C@H](O)[C@H]4O)c(O)cc3C)cc2)cc1OC [Compound 55]
SGLT1 % inhibition at 100 nM (human SGLT1): 69%
SGLT2 % inhibition at 100 nM (human SGLT2): 69%

Cc1cc(O)c([C@@H]2O[C@H](CO)[C@@H](O)[C@H](O)[C@H]2O)cc1Cc1ccc(CCNC(=O)NC2CCCc3ccccc32)cc1 (stereo partly shown) [Compound 35]
IC50 (human SGLT1): 83 nM
IC50 (human SGLT2): 34 nM

COC(=O)CCNC(=O)NCCc1ccc(Cc2cc([C@@H]3O[C@H](CO)[C@@H](O)[C@H](O)[C@H]3O)c(O)cc2C)cc1 [Compound 32]
IC50 (human SGLT1): 245 nM
IC50 (human SGLT2): 44 nM

CCC(CO)NC(=O)NCCc1ccc(Cc2cc([C@@H]3O[C@H](CO)[C@@H](O)[C@H](O)[C@H]3O)c(O)cc2C)cc1 (stereo partly shown) [Compound 50]
SGLT1 % inhibition at 100 nM (human SGLT1): 71%
SGLT2 % inhibition at 100 nM (human SGLT2): 77%

Cc1cc(O)c([C@@H]2O[C@H](CO)[C@@H](O)[C@H](O)[C@H]2O)cc1Cc1ccc(CCNC(=O)NC(C)(C)C)cc1 [Compound 39]
SGLT1 % inhibition at 100 nM (human SGLT1): 80%
SGLT2 % inhibition at 100 nM (human SGLT2): 83%

Cc1cc(O)c([C@@H]2O[C@H](CO)[C@@H](O)[C@H](O)[C@H]2O)cc1Cc1ccc(CCNC(=O)NC(CO)C(C)C)cc1 (stereo partly shown) [Compound 43]
SGLT1 % inhibition at 100 nM (human SGLT1): 77%
SGLT2 % inhibition at 100 nM (human SGLT2): 86%
